According to PMC4995014, “Identification of ABC Transporter Interaction of a Novel Cyanoquinoline Radiotracer and Implications for Tumour Imaging by Positron Emission Tomography” (PLoS ONE, 2016):

How the values were obtained:
Format in all cases: cell-based
[1] = biological target: T1, wildtype EGFR (H358 cells) (Homo sapiens, UniProt P00533); assay: Inhibition of EGFR autophosphorylation (p-EGFR Y1068, western blot) in H358 cells; conditions: 3 h incubation, EGF stimulated
T1 construct: host or cells: H358
Experimental: (§1) Affinity of the cyanoquinolines for EGFR was established by measuring their inhibition of EGFR autophosphorylation via western blot. Cells were seeded in 6 well plates and following 24 h of growth, were subject to overnight serum starvation. The cells were then treated with increasing concentrations of cyanoquinolines prepared in serum free growth media from a DMSO stock (final DMSO concentration < 1%) for 3 h at 37°C, and stimulated for receptor autophosphorylation by addition of 100 ng/mL of EGF during the last 15 minutes of drug incubation. After 3 h the cells were placed on ice, media removed and then the cells were washed two times with ice cold phosphate buffered saline (PBS). Lysates were analysed by western blot to measure changes to p-EGFR Y1068.
(§2) Cell lysates were prepared by addition of radioimmunoprecipitation assay (RIPA) buffer (50mM Tris-HCl pH 7.2, 150mM NaCl, 1% NP40, 1% sodium deoxycholate, 0.1% sodium dodecyl sulfate) supplemented with 1 x protease and phosphatase inhibitor cocktail (1mM 4-(2-Aminoethyl)benzenesulfonylfluoride hydrochloride, 800 nM aprotinin, 50 μM bestatin, 15 μM E-64, 5μM EDTA, 20 μM leupeptin, 10 μM pepstatin A; Thermo scientific, Waltham, Massachusetts, USA). […] Cellular protein levels were assessed using a bicinchoninic acid (BCA) protein assay kit according to the manufacturer’s instructions (Thermo scientific). […]

wildtype EGFR = biological target: T2, wildtype EGFR (Homo sapiens, UniProt P00533); assay: Inhibition of EGFR autophosphorylation in wildtype EGFR expressing A549 and H358 cells; conditions: read-out: IC50 p-EGFR Y1068 in wildtype EGFR expressing cells
T2 construct: host or cells: H358; A549
Experimental: as §1, §2

[2] = biological target: T3, EGFR Del E746-A750 (H1650 cells) (Homo sapiens, UniProt P00533, DEL746-750); assay: Inhibition of EGFR autophosphorylation (p-EGFR Y1068, western blot) in H1650 cells; conditions: 3 h incubation, EGF stimulated
T3 construct: endogenous in cells; host or cells: H1650 (ATCC)
Experimental: as §1, §2

[3] = biological target: T4, EGFR Del E746-A750 (PC9 cells) (Homo sapiens, UniProt P00533, DEL746-750); assay: Inhibition of EGFR autophosphorylation (p-EGFR Y1068, western blot) in PC9 cells; conditions: 3 h incubation, densitometry of western blots
T4 construct: endogenous in cells; host or cells: PC9 (Dr Olivier Pardo, Imperial College London)
Experimental: as §1
(§3) Cells were collected into a microcentrifuge tube and sonicated for 30 seconds on ice. Cellular protein levels were assessed using a bicinchoninic acid (BCA) protein assay kit according to the manufacturer’s instructions (Thermo scientific). […] Samples were transferred to polyvinylidene difluoride (PVDF) membrane using Trans-Blot Turbo system BIO-RAD (Hercules, California, USA). […] The membranes were then incubated overnight with primary antibody prepared in 1% milk or 1% BSA in TBST. […] Membranes were washed a further three times for 10 minutes with TBST. […]

EGFR L858R (H3255 cells) = biological target: T5, EGFR L858R (H3255 cells) (Homo sapiens, UniProt P00533, L858R); assay: Inhibition of EGFR autophosphorylation (p-EGFR Y1068, western blot) in H3255 cells; conditions: 3 h incubation, EGF stimulated
T5 construct: host or cells: H3255
Experimental: as §1, §3

[4] = biological target: T6, wildtype EGFR (A549 cells) (Homo sapiens, UniProt P00533); assay: Inhibition of EGFR autophosphorylation (p-EGFR Y1068, western blot) in A549 cells; conditions: 3 h incubation, EGF stimulated
T6 construct: host or cells: A549
Experimental: as §1, §2

[5] = biological target: T7, EGFR L858R/T790M (H1975 cells) (Homo sapiens, UniProt P00533, L858R/T790M); assay: Inhibition of EGFR autophosphorylation (p-EGFR Y1068, western blot) in H1975 cells; conditions: 3 h incubation, EGF stimulated
T7 construct: host or cells: H1975
Experimental: as §1, §3

T5 sequence (P00533 25-1210 L858R): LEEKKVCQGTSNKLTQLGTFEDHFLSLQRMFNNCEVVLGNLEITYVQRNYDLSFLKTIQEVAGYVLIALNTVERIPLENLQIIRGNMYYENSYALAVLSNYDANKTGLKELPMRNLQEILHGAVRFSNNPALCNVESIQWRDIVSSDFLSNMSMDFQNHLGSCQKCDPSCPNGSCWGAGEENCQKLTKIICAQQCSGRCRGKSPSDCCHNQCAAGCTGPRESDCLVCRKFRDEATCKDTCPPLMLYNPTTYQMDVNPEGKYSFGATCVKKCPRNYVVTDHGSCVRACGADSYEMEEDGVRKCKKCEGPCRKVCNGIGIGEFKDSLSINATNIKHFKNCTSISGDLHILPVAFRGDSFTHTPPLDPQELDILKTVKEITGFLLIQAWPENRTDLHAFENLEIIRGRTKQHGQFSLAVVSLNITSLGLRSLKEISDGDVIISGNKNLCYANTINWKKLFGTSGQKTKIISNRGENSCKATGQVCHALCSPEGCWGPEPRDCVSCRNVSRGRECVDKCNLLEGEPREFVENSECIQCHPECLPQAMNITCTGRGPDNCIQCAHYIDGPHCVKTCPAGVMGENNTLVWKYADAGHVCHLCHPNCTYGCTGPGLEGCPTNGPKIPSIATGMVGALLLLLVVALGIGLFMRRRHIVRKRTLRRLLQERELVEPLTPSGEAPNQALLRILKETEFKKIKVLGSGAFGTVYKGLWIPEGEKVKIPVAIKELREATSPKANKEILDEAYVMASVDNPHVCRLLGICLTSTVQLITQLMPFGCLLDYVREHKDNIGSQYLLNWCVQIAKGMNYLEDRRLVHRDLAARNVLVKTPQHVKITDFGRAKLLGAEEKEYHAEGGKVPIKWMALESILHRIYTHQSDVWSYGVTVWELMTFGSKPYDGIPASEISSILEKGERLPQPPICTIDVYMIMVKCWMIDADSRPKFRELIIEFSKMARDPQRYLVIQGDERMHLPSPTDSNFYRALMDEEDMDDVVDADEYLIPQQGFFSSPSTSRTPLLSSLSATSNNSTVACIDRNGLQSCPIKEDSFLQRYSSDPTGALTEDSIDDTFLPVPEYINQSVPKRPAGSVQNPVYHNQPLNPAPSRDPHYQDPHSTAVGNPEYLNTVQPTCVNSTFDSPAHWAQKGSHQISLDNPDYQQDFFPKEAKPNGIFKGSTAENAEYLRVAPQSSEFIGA
T3 sequence (P00533 with tags, fused parts or gaps DEL746-750): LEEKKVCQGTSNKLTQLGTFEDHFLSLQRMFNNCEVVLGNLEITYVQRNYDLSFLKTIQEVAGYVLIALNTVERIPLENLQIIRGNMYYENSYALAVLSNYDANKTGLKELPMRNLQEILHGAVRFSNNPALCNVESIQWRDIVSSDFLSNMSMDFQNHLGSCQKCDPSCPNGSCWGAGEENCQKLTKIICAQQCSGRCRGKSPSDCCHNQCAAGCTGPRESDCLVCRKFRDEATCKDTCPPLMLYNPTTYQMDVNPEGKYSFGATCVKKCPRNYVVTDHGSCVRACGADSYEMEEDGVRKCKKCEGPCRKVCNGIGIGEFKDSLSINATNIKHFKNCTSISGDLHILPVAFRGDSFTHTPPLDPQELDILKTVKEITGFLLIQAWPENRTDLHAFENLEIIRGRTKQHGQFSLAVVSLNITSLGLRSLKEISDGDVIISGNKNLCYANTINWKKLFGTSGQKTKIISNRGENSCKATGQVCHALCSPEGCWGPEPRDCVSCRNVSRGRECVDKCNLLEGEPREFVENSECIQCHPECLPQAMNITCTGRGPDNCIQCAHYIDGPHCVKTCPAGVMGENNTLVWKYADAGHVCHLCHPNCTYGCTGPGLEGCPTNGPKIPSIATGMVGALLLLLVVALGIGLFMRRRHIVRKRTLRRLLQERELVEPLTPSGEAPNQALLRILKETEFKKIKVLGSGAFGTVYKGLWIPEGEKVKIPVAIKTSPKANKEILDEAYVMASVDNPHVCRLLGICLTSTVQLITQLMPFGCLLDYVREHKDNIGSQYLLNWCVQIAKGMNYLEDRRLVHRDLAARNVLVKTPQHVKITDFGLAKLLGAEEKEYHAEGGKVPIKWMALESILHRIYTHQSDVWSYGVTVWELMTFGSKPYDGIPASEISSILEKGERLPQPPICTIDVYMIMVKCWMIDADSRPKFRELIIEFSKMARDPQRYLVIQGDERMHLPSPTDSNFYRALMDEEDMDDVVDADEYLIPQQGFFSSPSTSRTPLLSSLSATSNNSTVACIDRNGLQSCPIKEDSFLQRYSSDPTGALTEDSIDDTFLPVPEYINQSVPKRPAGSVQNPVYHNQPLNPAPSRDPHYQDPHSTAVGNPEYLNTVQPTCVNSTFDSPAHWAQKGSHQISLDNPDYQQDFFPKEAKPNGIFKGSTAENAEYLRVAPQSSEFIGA
T4 sequence (P00533 with tags, fused parts or gaps DEL746-750): as above
T1 sequence (P00533 25-1210): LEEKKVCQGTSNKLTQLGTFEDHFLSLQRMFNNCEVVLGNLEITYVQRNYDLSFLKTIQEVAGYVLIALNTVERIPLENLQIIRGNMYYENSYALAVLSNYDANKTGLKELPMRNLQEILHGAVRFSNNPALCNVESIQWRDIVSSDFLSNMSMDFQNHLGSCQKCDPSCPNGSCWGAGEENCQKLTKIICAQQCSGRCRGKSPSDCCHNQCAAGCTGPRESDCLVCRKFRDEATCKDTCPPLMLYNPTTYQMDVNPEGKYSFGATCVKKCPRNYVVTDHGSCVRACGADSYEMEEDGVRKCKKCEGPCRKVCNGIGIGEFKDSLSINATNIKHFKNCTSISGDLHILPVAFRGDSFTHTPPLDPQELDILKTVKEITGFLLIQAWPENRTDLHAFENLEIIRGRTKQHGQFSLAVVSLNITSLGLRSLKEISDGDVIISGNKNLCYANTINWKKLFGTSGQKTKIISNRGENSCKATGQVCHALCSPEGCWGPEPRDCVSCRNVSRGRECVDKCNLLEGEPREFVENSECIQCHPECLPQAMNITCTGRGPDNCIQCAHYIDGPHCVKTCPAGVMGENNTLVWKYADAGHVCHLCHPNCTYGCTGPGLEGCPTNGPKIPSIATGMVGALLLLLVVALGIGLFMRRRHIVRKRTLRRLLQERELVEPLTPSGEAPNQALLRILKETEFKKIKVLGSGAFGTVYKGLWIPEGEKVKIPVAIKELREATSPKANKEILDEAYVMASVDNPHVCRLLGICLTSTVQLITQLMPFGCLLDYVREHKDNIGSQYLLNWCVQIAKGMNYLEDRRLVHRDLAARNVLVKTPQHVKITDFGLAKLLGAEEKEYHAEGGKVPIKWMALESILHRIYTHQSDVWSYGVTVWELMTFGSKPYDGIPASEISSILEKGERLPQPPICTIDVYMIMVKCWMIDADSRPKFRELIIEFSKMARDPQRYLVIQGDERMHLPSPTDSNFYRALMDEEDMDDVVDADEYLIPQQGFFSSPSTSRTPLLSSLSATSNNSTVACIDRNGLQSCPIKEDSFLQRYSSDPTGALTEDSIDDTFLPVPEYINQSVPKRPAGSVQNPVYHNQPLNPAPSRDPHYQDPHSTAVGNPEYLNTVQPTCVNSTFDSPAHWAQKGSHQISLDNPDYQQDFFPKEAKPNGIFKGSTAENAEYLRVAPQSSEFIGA

IC50 [1]: 600 nM
IC50 (wildtype EGFR): 600 to 700 nM
IC50 [2]: 40 nM
IC50 [3]: 22 nM
IC50 (EGFR L858R (H3255 cells)): 8 nM
IC50 [4]: 700 nM
IC50 [5]: > 1000 nM
SMILES: CCOc1cc2ncc(C#N)c(Nc3ccc(F)c(Cl)c3)c2cc1NC(=O)/C=C/CNCc1cn(CCF)nn1 [FED6, (2E)-N-{4-[(3-chloro-4-fluorophenyl)amino]-3-cyano-7-ethoxyquinolin-6-yl}-4-({[1-(2-fluoroethyl)-1H-1,2,3-triazol-4-yl]methyl}amino)-but-2-enamide]
